In one test the target is human Gal-1 (hGal-1). Kind of test: Competitive binding assay: binding of biotinylated hGal-1 to microplate-adsorbed asialofetuin (ASF). The following applies: Activities on hGal-1; mean values of several measurements. The method in brief: (§1)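 Biotin-hGal-3/hGal-1 300-1000 ng/mL + cpd (DMSO dilutions) on ASF-coated plate, 3 h 4° C; wash; SA-HRP 80 ng/mL 1 h 4° C; wash; ABTS. IC50 = mean of several runs. hGal-1 preferably Cys→Ser (all six) mutant.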

A further test deals with human Gal-3 (hGal-3) (Homo sapiens (Human), UniProt P17931). Briefly: Competitive binding assay: binding of biotinylated hGal-3 to microplate-adsorbed asialofetuin (ASF). The following applies: Activity on hGal-3; mean values of several measurements. The method in brief:
as §1

human Gal-1 (hGal-1), sequence (P09382 2-135 limits assumed): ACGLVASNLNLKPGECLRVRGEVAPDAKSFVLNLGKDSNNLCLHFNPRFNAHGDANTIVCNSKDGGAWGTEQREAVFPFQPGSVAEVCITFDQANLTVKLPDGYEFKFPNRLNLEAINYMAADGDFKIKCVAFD
human Gal-3 (hGal-3), sequence (P17931 whole entry): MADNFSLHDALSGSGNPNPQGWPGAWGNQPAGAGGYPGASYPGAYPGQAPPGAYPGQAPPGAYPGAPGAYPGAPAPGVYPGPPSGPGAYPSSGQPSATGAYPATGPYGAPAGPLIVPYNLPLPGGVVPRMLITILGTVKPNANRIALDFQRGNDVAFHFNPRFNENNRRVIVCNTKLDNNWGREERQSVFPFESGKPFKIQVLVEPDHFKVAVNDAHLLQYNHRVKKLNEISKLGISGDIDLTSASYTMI

As a reminder, the IC50 is the concentration needed to halve the response being measured. Higher therefore signals a need for much substance. In the case of `CO[C@@H]1[C@@H](n2cc(-c3cc(F)c(F)c(F)c3)nn2)[C@@H](O)[C@@H](CO)O[C@@H]1C[C@H]1CC(C2CCN(S(=O)(=O)C(C)C)CC2)=NO1` [Example 3.60, (2R,3R,4S,5R,6R)-2-(hydroxymethyl)-6-(((R)-3-(1-(isopropylsulfonyl)piperidin-4-yl)-4,5-dihydroisoxazol-5-yl)methyl)-5-methoxy-4-(4-(3,4,5-trifluorophenyl)-1H-1,2,3-triazol-1-yl)tetrahydro-2H-pyran-3-ol], the half-inhibitory concentration (IC50) was 5.1 µM at human Gal-1 (hGal-1) and 0.37 µM at human Gal-3 (hGal-3).
In the same order, the values of `CO[C@@H]1[C@@H](n2cc(-c3cc(F)c(F)c(F)c3)nn2)[C@@H](O)[C@@H](CO)O[C@@H]1C[C@@H]1CC(C2CCN(S(=O)(=O)C(C)C)CC2)=NO1` [Example 3.61, (2R,3R,4S,5R,6R)-2-(hydroxymethyl)-6-(((S)-3-(1-(isopropylsulfonyl)piperidin-4-yl)-4,5-dihydroisoxazol-5-yl)methyl)-5-methoxy-4-(4-(3,4,5-trifluorophenyl)-1H-1,2,3-triazol-1-yl)tetrahydro-2H-pyran-3-ol] are 1.12 µM and 0.072 µM.
The corresponding values for `CO[C@@H]1[C@@H](n2cc(-c3cc(F)c(F)c(F)c3)nn2)[C@@H](O)[C@@H](CO)O[C@@H]1Cc1cc(C2CCN(S(=O)(=O)N3CCOCC3)CC2)on1` [Example 3.62, (2R,3R,4S,5R,6R)-2-(hydroxymethyl)-5-methoxy-6-((5-(1-(morpholinosulfonyl)piperidin-4-yl)isoxazol-3-yl)methyl)-4-(4-(3,4,5-trifluorophenyl)-1H-1,2,3-triazol-1-yl)tetrahydro-2H-pyran-3-ol] are 1.35 µM and 0.045 µM.
In the same order, the values of `CO[C@@H]1[C@@H](n2cc(-c3cc(F)c(F)c(F)c3)nn2)[C@@H](O)[C@@H](CO)O[C@@H]1Cc1cc(C2CCN(S(=O)(=O)N3CCCCC3)CC2)on1` [Example 3.63, (2R,3R,4S,5R,6R)-2-(hydroxymethyl)-5-methoxy-6-((5-(1-(piperidin-1-ylsulfonyl)piperidin-4-yl)isoxazol-3-yl)methyl)-4-(4-(3,4,5-trifluorophenyl)-1H-1,2,3-triazol-1-yl)tetrahydro-2H-pyran-3-ol] are 0.56 µM and 0.069 µM.
`CO[C@@H]1[C@@H](n2cc(-c3cc(F)c(F)c(F)c3)nn2)[C@@H](O)[C@@H](CO)O[C@@H]1Cc1cc(C2CCN(S(=O)(=O)N3CCCC3)CC2)on1` [Example 3.64, (2R,3R,4S,5R,6R)-2-(hydroxymethyl)-5-methoxy-6-((5-(1-(pyrrolidin-1-ylsulfonyl)piperidin-4-yl)isoxazol-3-yl)methyl)-4-(4-(3,4,5-trifluorophenyl)-1H-1,2,3-triazol-1-yl)tetrahydro-2H-pyran-3-ol]: the IC50 at human Gal-1 (hGal-1) is 0.76 µM; at human Gal-3 (hGal-3), 0.025 µM.
`CO[C@@H]1[C@@H](n2cc(-c3cc(F)c(F)c(F)c3)nn2)[C@@H](O)[C@@H](CO)O[C@@H]1Cc1cc(C2CCN(S(=O)(=O)N3CCC(F)(F)CC3)CC2)on1` [Example 3.65, (2R,3R,4S,5R,6R)-6-((5-(1-((4,4-difluoropiperidin-1-yl)sulfonyl)piperidin-4-yl)isoxazol-3-yl)methyl)-2-(hydroxymethyl)-5-methoxy-4-(4-(3,4,5-trifluorophenyl)-1H-1,2,3-triazol-1-yl)tetrahydro-2H-pyran-3-ol]: the figures for the IC50 on human Gal-1 (hGal-1) and at human Gal-3 (hGal-3) were 1.88 µM and 0.045 µM, respectively.
In the same order, the values of `CO[C@@H]1[C@@H](n2cc(-c3cc(F)c(F)c(F)c3)nn2)[C@@H](O)[C@@H](CO)O[C@@H]1Cc1cc(C2CCN(C(=O)N3CCCCC3)CC2)on1` [Example 3.66, (4-(3-(((2R,3R,4S,5R,6R)-5-hydroxy-6-(hydroxymethyl)-3-methoxy-4-(4-(3,4,5-trifluorophenyl)-1H-1,2,3-triazol-1-yl)tetrahydro-2H-pyran-2-yl)methyl)isoxazol-5-yl)piperidin-1-yl)(piperidin-1-yl)methanone] are 3.59 µM and 0.14 µM.
Take `CO[C@@H]1[C@@H](n2cc(-c3cc(F)c(F)c(F)c3)nn2)[C@@H](O)[C@@H](CO)O[C@@H]1Cc1cc(C2CCN(C(=O)N3CCCC3)CC2)on1` [Example 3.67, (4-(3-(((2R,3R,4S,5R,6R)-5-hydroxy-6-(hydroxymethyl)-3-methoxy-4-(4-(3,4,5-trifluorophenyl)-1H-1,2,3-triazol-1-yl)tetrahydro-2H-pyran-2-yl)methyl)isoxazol-5-yl)piperidin-1-yl)(pyrrolidin-1-yl)methanone]: the figures for the concentration for half-maximal inhibition (IC50) at human Gal-1 (hGal-1) and on human Gal-3 (hGal-3) were 0.92 µM and 0.069 µM, respectively.
In the same order, the values of `CCN(C)C(=O)N1CCC(c2cc(C[C@H]3O[C@H](CO)[C@H](O)[C@H](n4cc(-c5cc(F)c(F)c(F)c5)nn4)[C@H]3OC)no2)CC1` [Example 3.68, N-ethyl-4-(3-(((2R,3R,4S,5R,6R)-5-hydroxy-6-(hydroxymethyl)-3-methoxy-4-(4-(3,4,5-trifluorophenyl)-1H-1,2,3-triazol-1-yl)tetrahydro-2H-pyran-2-yl)methyl)isoxazol-5-yl)-N-methylpiperidine-1-carboxamide] are 2.46 µM and 0.11 µM.
The corresponding values for `CO[C@@H]1[C@@H](n2cc(-c3cc(F)c(F)c(F)c3)nn2)[C@@H](O)[C@@H](CO)O[C@@H]1Cc1cc(C2CCN(C(=O)N(C)C)CC2)on1` [Example 3.69, 4-(3-(((2R,3R,4S,5R,6R)-5-hydroxy-6-(hydroxymethyl)-3-methoxy-4-(4-(3,4,5-trifluorophenyl)-1H-1,2,3-triazol-1-yl)tetrahydro-2H-pyran-2-yl)methyl)isoxazol-5-yl)-N,N-dimethylpiperidine-1-carboxamide] are 2.47 µM and 0.17 µM.
The corresponding values for `CO[C@@H]1[C@@H](n2cc(-c3cc(F)c(F)c(F)c3)nn2)[C@@H](O)[C@@H](CO)O[C@@H]1Cc1cc(C2CCN(C(=O)N3CCN(C)CC3)CC2)on1` [Example 3.70, (4-(3-(((2R,3R,4S,5R,6R)-5-hydroxy-6-(hydroxymethyl)-3-methoxy-4-(4-(3,4,5-trifluorophenyl)-1H-1,2,3-triazol-1-yl)tetrahydro-2H-pyran-2-yl)methyl)isoxazol-5-yl)piperidin-1-yl)(4-methylpiperazin-1-yl)methanone] are 0.82 µM and 0.084 µM.
Take `CO[C@@H]1[C@@H](n2cc(-c3cc(F)c(F)c(F)c3)nn2)[C@@H](O)[C@@H](CO)O[C@@H]1Cn1cc(-c2cccc(F)c2)nn1` [Example 4.01, (2R,3R,4S,5R,6R)-6-((4-(3-fluorophenyl)-1H-1,2,3-triazol-1-yl)methyl)-2-(hydroxymethyl)-5-methoxy-4-(4-(3,4,5-trifluorophenyl)-1H-1,2,3-triazol-1-yl)tetrahydro-2H-pyran-3-ol]: the IC50 at human Gal-1 (hGal-1) came to 13.5 µM; at human Gal-3 (hGal-3), 1.24 µM.
In the same order, the values of `CO[C@@H]1[C@@H](n2cc(-c3cc(F)c(F)c(F)c3)nn2)[C@@H](O)[C@@H](CO)O[C@@H]1Cn1cc(-c2ccc3[nH]c(=O)oc3c2)nn1` [Example 4.02, 6-(1-(((2R,3R,4S,5R,6R)-5-hydroxy-6-(hydroxymethyl)-3-methoxy-4-(4-(3,4,5-trifluorophenyl)-1H-1,2,3-triazol-1-yl)tetrahydro-2H-pyran-2-yl)methyl)-1H-1,2,3-triazol-4-yl)benzo[d]oxazol-2(3H)-one] are 20.3 µM and 0.69 µM.
In the same order, the values of `CO[C@@H]1[C@@H](n2cc(-c3cc(F)c(F)c(F)c3)nn2)[C@@H](O)[C@@H](CO)O[C@@H]1Cc1cn(C2CCOCC2)nn1` [Example 4.03, (2R,3R,4S,5R,6R)-2-(hydroxymethyl)-5-methoxy-6-((1-(tetrahydro-2H-pyran-4-yl)-1H-1,2,3-triazol-4-yl)methyl)-4-(4-(3,4,5-trifluorophenyl)-1H-1,2,3-triazol-1-yl)tetrahydro-2H-pyran-3-ol] are 1.76 µM and 0.076 µM.
In the same order, the values of `CO[C@@H]1[C@@H](n2cc(-c3cc(F)c(F)c(F)c3)nn2)[C@@H](O)[C@@H](CO)O[C@@H]1Cn1cc(C2CCN(C(C)=O)CC2)nn1` [Example 4.04, 1-(4-(1-(((2R,3R,4S,5R,6R)-5-hydroxy-6-(hydroxymethyl)-3-methoxy-4-(4-(3,4,5-trifluorophenyl)-1H-1,2,3-triazol-1-yl)tetrahydro-2H-pyran-2-yl)methyl)-1H-1,2,3-triazol-4-yl)piperidin-1-yl)ethan-1-one] are 0.7 µM and 0.044 µM.
Regarding `CO[C@@H]1[C@@H](n2cc(-c3cc(F)c(F)c(F)c3)nn2)[C@@H](O)[C@@H](CO)O[C@@H]1Cc1cn(C2CCN(C(=O)OC(C)(C)C)CC2)nn1` [Example 4.05, tert-butyl 4-(4-(((2R,3R,4S,5R,6R)-5-hydroxy-6-(hydroxymethyl)-3-methoxy-4-(4-(3,4,5-trifluorophenyl)-1H-1,2,3-triazol-1-yl)tetrahydro-2H-pyran-2-yl)methyl)-1H-1,2,3-triazol-1-yl)piperidine-1-carboxylate], the half-inhibitory concentration (IC50) turned out to be 0.14 µM at human Gal-1 (hGal-1) and 0.035 µM on human Gal-3 (hGal-3).
The corresponding values for `CO[C@@H]1[C@@H](n2cc(-c3cc(F)c(F)c(F)c3)nn2)[C@@H](O)[C@@H](CO)O[C@@H]1Cc1cn(C2CCN(C(C)=O)CC2)nn1` [Example 4.06, 1-(4-(4-(((2R,3R,4S,5R,6R)-5-hydroxy-6-(hydroxymethyl)-3-methoxy-4-(4-(3,4,5-trifluorophenyl)-1H-1,2,3-triazol-1-yl)tetrahydro-2H-pyran-2-yl)methyl)-1H-1,2,3-triazol-1-yl)piperidin-1-yl)ethan-1-one] are 0.16 µM and 0.052 µM.

The record behind these values is patent US12319672B2, “Alpha-D-galactopyranoside derivatives” (Idorsia Pharmaceuticals Ltd, priority 2019, dated 2025).
